Data: US20130090385A1, “NOVEL SPECIFIC CASPASE-10 INHIBITORS” (MERCK PATENT GESELLSCHAFT MIT BESCHRANKTER HAFTUNG, priority 2005, published 2013)
Like-named read-outs stand apart in the source and are kept apart here.

Assays:
[1] = target: T1, Recombinant human caspase-2 (Homo sapiens, UniProt P42575); assay: delayed-time fluorescence caspase inhibition test, caspase-2
T1 sequence (P42575 1-452): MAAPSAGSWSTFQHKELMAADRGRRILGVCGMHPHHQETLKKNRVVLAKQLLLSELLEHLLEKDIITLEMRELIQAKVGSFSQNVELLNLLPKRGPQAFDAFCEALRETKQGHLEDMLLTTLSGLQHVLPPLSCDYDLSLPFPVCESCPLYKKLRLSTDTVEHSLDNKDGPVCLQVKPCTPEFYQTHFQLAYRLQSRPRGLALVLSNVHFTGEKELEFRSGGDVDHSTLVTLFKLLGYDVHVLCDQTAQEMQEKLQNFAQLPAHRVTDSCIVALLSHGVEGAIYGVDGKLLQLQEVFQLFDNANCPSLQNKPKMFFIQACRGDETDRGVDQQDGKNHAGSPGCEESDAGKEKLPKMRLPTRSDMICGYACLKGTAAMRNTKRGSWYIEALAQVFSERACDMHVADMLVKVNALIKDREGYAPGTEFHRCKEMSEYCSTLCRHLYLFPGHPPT
Experimental: (§1) The substrate used is a tetrapeptide specific to this caspase, having at one of its ends a fluorescent europium marker (W1284) and at the other end a europium chelate fluorescence quencher (QSy-7): Eu-W1284-CIETDK-QSy-7.
(§2) The caspase cleaves the substrate, releasing the quencher. Thus, by excitation at 340 nm, the signal emitted by the fluorescence of the europium is read by WALLAC Victor^2 reader at 615 nm.
(§3) They are ready for use or may be divided into aliquots and stored at −80° C.. […] 20 μl of this solution are distributed per well of the assay plate. […] The assay is performed with 1 U of enzyme per well, by distributing 20 μl of the diluted solution per well. • The standard inhibitors: The standard inhibitors are dissolved in DMSO to a concentration of 10 mM. They are tested at IC20 and at IC50 on the caspases they inhibit (see following table).
(§4) They are then distributed in the wells using this solution to reach the final concentration of IC20 or IC50, i.e. 3 μl in 33 μl of final reaction volume (dilution 1/11). Thus, the final concentration of DMSO in the well is 0.3% (v/v) final. […] An intermediate dilution (1/6.6) is prepared in DMSO by diluting 10 μl of the concentrated solution in 66 μl of DMSO (final volume). […] The inhibitors are then distributed in the wells to reach the final screening concentration (10 μM), i.e. 3 μl in 33 μl of final reaction volume (dilution 1/11) and a final concentration of DMSO of 0.3% (v/v) in the well. • Protocol:
(§5) The incubation takes place for 3 hours 30 minutes at room temperature before reading the fluorescence in delayed time on the WALLAC Victor^2 reader with the filters corresponding to the fluorescence of europium (excitation filter: 340 nm, emission filter: 615 nm).
(§6) The inhibitors are diluted using solutions with concentrations of less than 20 mM in DMSO, and then prediluted in the caspase buffer. […] The specificity factor for caspase-10 is calculated as the following ratio:

[2] = target: T2, Recombinant human caspase-3 (Homo sapiens, UniProt P42574); assay: delayed-time fluorescence caspase inhibition test, caspase-3
T2 sequence (P42574 29-277): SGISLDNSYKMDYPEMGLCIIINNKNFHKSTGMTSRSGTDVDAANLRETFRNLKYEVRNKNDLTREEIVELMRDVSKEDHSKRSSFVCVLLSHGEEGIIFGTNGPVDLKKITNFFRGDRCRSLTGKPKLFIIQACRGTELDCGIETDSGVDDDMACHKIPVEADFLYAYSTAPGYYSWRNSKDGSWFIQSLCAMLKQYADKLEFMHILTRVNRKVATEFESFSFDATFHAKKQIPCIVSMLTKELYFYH
Experimental: as §1, §2
20 μl of this solution are distributed per well of the assay plate. […] The assay is performed with 1 U of enzyme per well, by distributing 20 μl of the diluted solution per well. • The standard inhibitors: The standard inhibitors are dissolved in DMSO to a concentration of 10 mM. They are tested at IC20 and at IC50 on the caspases they inhibit (see following table). The concentrations mentioned in the table are the final concentrations in the assay wells.
as §4
The volumes and the protocol were optimised for automated use.
as §5
The inhibitors are diluted using solutions with concentrations of less than 20 mM in DMSO, and then prediluted in the caspase buffer.

[3] = target: T3, Recombinant human caspase-6 (Homo sapiens, UniProt P55212); assay: delayed-time fluorescence caspase inhibition test, caspase-6
T3 sequence (P55212 24-293): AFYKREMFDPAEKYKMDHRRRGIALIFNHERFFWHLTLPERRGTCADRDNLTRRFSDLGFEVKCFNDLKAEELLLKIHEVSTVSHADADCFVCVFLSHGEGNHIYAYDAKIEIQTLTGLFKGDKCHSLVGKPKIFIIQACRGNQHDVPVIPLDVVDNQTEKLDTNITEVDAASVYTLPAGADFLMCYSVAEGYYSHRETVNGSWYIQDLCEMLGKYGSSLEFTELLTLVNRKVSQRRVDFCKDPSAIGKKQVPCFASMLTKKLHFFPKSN
Experimental: as §1, §2, §3, §4, §5, §6

[4] = target: Recombinant human caspase-8 (Homo sapiens, UniProt Q14790); assay: delayed-time fluorescence caspase inhibition test, caspase-8
Experimental: as §1, §2, §3, §4, §5, §6

[5] = target: T4, Recombinant human caspase-9 (Homo sapiens, UniProt P55211); assay: delayed-time fluorescence caspase inhibition test, caspase-9
T4 sequence (P55211 1-416): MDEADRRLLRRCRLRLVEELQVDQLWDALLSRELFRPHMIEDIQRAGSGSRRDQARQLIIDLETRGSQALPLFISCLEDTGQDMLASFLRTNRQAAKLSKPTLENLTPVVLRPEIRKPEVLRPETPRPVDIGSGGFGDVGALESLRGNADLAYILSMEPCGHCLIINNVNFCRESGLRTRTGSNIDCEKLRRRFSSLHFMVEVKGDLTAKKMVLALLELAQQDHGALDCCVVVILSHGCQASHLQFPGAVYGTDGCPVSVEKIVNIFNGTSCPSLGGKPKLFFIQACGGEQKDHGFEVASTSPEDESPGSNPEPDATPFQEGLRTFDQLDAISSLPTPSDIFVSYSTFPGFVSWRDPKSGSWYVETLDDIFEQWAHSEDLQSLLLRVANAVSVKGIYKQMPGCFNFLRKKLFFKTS
Experimental: as §1, §2, §3, §4, §5, §6

[6] = target: T5, Recombinant human caspase-10 (Homo sapiens, UniProt Q92851); assay: delayed-time fluorescence caspase inhibition test, caspase-10
T5 sequence (Q92851 220-521): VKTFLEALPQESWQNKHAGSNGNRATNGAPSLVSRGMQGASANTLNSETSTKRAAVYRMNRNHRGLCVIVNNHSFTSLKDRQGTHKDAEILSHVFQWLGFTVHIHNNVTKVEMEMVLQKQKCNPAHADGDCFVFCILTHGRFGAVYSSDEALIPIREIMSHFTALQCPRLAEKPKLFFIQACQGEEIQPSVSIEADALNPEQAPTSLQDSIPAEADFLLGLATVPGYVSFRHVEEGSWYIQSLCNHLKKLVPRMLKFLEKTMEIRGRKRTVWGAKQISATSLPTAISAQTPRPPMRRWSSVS
Experimental: as §1, §2, §3, §4, §5, §6

Chain of Recombinant human caspase-8 (Q14790 217-479): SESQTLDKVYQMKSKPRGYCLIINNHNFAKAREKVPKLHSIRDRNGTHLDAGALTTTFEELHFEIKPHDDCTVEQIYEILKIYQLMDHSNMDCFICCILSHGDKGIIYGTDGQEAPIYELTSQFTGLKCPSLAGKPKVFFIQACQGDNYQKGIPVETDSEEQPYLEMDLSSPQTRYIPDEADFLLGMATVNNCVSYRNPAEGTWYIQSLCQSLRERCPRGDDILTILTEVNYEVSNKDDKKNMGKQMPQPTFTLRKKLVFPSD

O=S(=O)(NCC1(Cc2ccc(CCO)cc2)CCCC1)c1cccc(C(F)(F)F)c1 [Example 50] showed an IC50 [1] of over 200 µM, an IC50 [2] of over 200 µM and an IC50 [3] of over 200 µM. The IC50 [4] was over 200 µM, the IC50 [5] was over 200 µM and the IC50 [6] was 3.16 µM.
Work on O=[N+]([O-])c1ccc(S(=O)(=O)NCC2(Cc3ccc(CCO)cc3)CCCC2)cc1 [Example 52] yielded an IC50 [1] of over 200 µM, an IC50 [2] of over 200 µM and an IC50 [3] of over 200 µM. It also gave an IC50 [4] of over 200 µM, an IC50 [5] of over 200 µM and an IC50 [6] of 3.69 µM.
Work on CSc1ccc(S(=O)(=O)NCC2(Cc3ccc(CCO)cc3)CCCC2)cc1 [Example 43] yielded an IC50 [1] of over 200 µM, an IC50 [2] of over 200 µM and an IC50 [3] of over 200 µM. For the same compound, the IC50 [4] was over 200 µM, the IC50 [5] was over 200 µM and the IC50 [6] was 5.12 µM.
Work on Cc1cccc(S(=O)(=O)NCC2(Cc3ccc(CCO)cc3)CCCC2)c1 [Example 63] yielded an IC50 [1] of over 200 µM, an IC50 [2] of over 200 µM and an IC50 [3] of over 200 µM. For the same compound, the IC50 [4] was over 200 µM, the IC50 [5] was over 200 µM and the IC50 [6] was 6.56 µM.
O=S(=O)(NCC1(Cc2ccc(CCO)cc2)CCCC1)c1ccc(Cl)cc1Cl [Example 46] was tested, and the IC50 [1] was over 200 µM, the IC50 [2] was over 200 µM and the IC50 [3] was over 200 µM. It also gave an IC50 [4] of over 200 µM, an IC50 [5] of over 200 µM and an IC50 [6] of 0.179 µM.
O=S(=O)(NCC1(Cc2ccc(CCO)cc2)CCCC1)c1ccc2ccccc2c1 [Example 51] gave an IC50 [1] of over 200 µM, an IC50 [2] of over 200 µM and an IC50 [3] of over 200 µM. The IC50 [4] was over 200 µM, the IC50 [5] was over 200 µM and the IC50 [6] was 0.281 µM.
In the case of COc1ccc(S(=O)(=O)NCC2(Cc3ccc(CCO)cc3)CCCC2)cc1 [Example 47], the IC50 [1] is reported as over 200 µM, the IC50 [2] is reported as over 200 µM and the IC50 [3] is reported as over 200 µM. It also gave an IC50 [4] of over 200 µM, an IC50 [5] of over 200 µM and an IC50 [6] of 5.51 µM.
With O=S(=O)(NCC1(Cc2ccc(CCO)cc2)CCC1)c1c(F)c(F)c(F)c(F)c1F [Example 66] the IC50 ([1]; read-out: Inhibition IC50 Caspase-2, tested 100 nM to 200 μM, 1% DMSO, 3 h 30 min at room temperature) was over 200 µM, the IC50 ([2]; read-out: Inhibition IC50 Caspase-3, tested 100 nM to 200 μM, 1% DMSO, 3 h 30 min at room temperature) was over 200 µM and the IC50 ([3]; read-out: Inhibition IC50 Caspase-6, tested 100 nM to 200 μM, 1% DMSO, 3 h 30 min at room temperature) was over 200 µM. For the same compound, the IC50 ([4]; read-out: Inhibition IC50 Caspase-8, tested 100 nM to 200 μM, 1% DMSO, 3 h 30 min at room temperature) was over 200 µM, the IC50 ([5]; read-out: Inhibition IC50 Caspase-9, tested 100 nM to 200 μM, 1% DMSO, 3 h 30 min at room temperature) was over 200 µM and the IC50 ([6]; read-out: Inhibition IC50 Caspase-10, tested 100 nM to 200 μM, 1% DMSO, 3 h 30 min at room temperature) was 0.393 µM.
CSCCc1ccc(CC2(CNS(=O)(=O)c3ccc(Cl)cc3Cl)CCC2)cc1 [Example 17, 2,4-dichloro-N-[(1-{4-[2-(methylthio)ethyl]benzyl}cyclobutyl)methyl]benzenesulfonamide] gave an IC50 [1] of over 200 µM, an IC50 [2] of over 200 µM and an IC50 [3] of over 200 µM. For the same compound, the IC50 [4] was over 200 µM, the IC50 [5] was over 200 µM and the IC50 [6] was 0.214 µM.
CC(=O)c1ccc(S(=O)(=O)NCC2(Cc3ccc(CCO)cc3)CCCC2)cc1 [Example 35] showed an IC50 [1] of over 200 µM, an IC50 [2] of over 200 µM and an IC50 [3] of over 200 µM. For the same compound, the IC50 [4] was over 200 µM, the IC50 [5] was over 200 µM and the IC50 [6] was 2.88 µM.
For O=S(=O)(NCC1(Cc2ccc(CCO)cc2)CCCC1)c1ccc(Cl)c(Cl)c1 [Example 45], the IC50 [1] was over 200 µM, the IC50 [2] was over 200 µM and the IC50 [3] was over 200 µM. The IC50 [4] was over 200 µM, the IC50 [5] was over 200 µM and the IC50 [6] was 0.297 µM.
O=S(=O)(NCC1(Cc2ccc(CCO)cc2)CCCC1)c1cc(F)c(F)c(F)c1 [Example 61] showed an IC50 [1] of over 200 µM, an IC50 [2] of over 200 µM and an IC50 [3] of over 200 µM. It also gave an IC50 [4] of over 200 µM, an IC50 [5] of over 200 µM and an IC50 [6] of 1.79 µM.
CS(=O)(=O)c1ccc(S(=O)(=O)NCC2(Cc3ccc(CCO)cc3)CCCC2)cc1 [Example 36] showed an IC50 [1] of over 200 µM, an IC50 [2] of over 200 µM and an IC50 [3] of over 200 µM. The IC50 [4] was over 200 µM, the IC50 [5] was over 200 µM and the IC50 [6] was 9.66 µM.
Cc1ccc(S(=O)(=O)NCC2(Cc3ccc(CCO)cc3)CCC2)cc1 [Example 57] was tested, and the IC50 [1] was over 200 µM, the IC50 [2] was over 200 µM and the IC50 [3] was over 200 µM. For the same compound, the IC50 [4] was over 200 µM, the IC50 [5] was over 200 µM and the IC50 [6] was 3.05 µM.
Work on O=S(=O)(NCC1(Cc2ccc(CCSC3CCCC3)cc2)CCC1)c1ccc(Cl)cc1Cl [Example 12, 2,4-dichloro-N-[(1-{4-[2-(cyclopentylthio)ethyl]benzyl}cyclobutyl)methyl]benzenesulfonamide] yielded an IC50 [1] of over 200 µM, an IC50 [2] of over 200 µM and an IC50 [3] of over 200 µM. For the same compound, the IC50 [4] was over 200 µM, the IC50 [5] was over 200 µM and the IC50 [6] was 0.216 µM.
In the case of O=S(=O)(NCC1(Cc2ccc(CCO)cc2)CCC1)c1ccc(Cl)cc1 [Example 56], the IC50 [1] is reported as over 200 µM, the IC50 [2] is reported as over 200 µM and the IC50 [3] is reported as over 200 µM. The IC50 [4] was over 200 µM, the IC50 [5] was over 200 µM and the IC50 [6] was 0.989 µM.
For O=S(=O)(NCC1(Cc2ccc(CCS(=O)(=O)C3CCCC3)cc2)CCC1)c1ccc(Cl)cc1Cl [Example 22, 2,4-dichloro-N-[(1-{4-[2-(cyclopentylsulfonyl)ethyl]benzyl}cyclobutyl)methyl]benzenesulfonamide], the IC50 [1] was over 200 µM, the IC50 [2] was over 200 µM and the IC50 [3] was over 200 µM. It also gave an IC50 [4] of over 200 µM, an IC50 [5] of over 200 µM and an IC50 [6] of 0.705 µM.
In the case of CS(=O)(=O)CCc1ccc(CC2(CNS(=O)(=O)c3cccc4ccccc34)CCC2)cc1 [Example 30, N-[(1-{4-[2-(methylsulfonyl)ethyl]benzyl}cyclobutyl)methyl]naphthalene-1-sulfonamide], the IC50 [1] is reported as over 200 µM, the IC50 [2] is reported as over 200 µM and the IC50 [3] is reported as over 200 µM. For the same compound, the IC50 [4] was over 200 µM, the IC50 [5] was over 200 µM and the IC50 [6] was 4.46 µM.
